Assays:
[1] = system: collagen I; experiment: Collagen I expression in human HaCaT cells (western blot); type: cell-based; conditions: relative to 0 μM = 1.00
Protocol: The Spontaneously transformed human keratinocyte cell lines HaCaT cells were grown at 37° C. in a humidified incubator under 5% CO2 and 95% air in culture medium such as Dulbecco Modified Eagle Medium (DMEM) supplemented with 10% Fetal Bovine Serum (FBS), 100 IU/mL penicillin, 100 μg/mL of streptomycin, 2 mM sodium pyruvate and 1% Non-Essential Amino Acids (NEAA). The culture medium was replaced every other day. After confluence, the cells were subcultured following trypsinization. For subcultures cells were harvested after brief treatment with 0.1% trypsin/ethylenediaminetetraacetic acid (EDTA) solution and seeded at a dilution of 1:10. Cells between passages 12 and 45 were used for studies. The cells were seeded and incubated for 24 h before treated with the astragalosides for 24 h. Control cultures were maintained in medium supplemented with vehicle (dimethyl sulfoxide (DMSO) 0.1%). No growth and differentiation effects of DMSO were observed under these culture conditions.
(§1) The cells were treated with pure compounds such as astragaloside I (AS 1), astragaloside II (AS2), astragaloside III (AS3), astragaloside IV (AS4), astragaloside VI (AS6), isoastragaloside I (isoAS1), isoastragaloside II (isoAS2), and cycloastragenol 6-O-β-D-glucopyranose (AA) at concentrations of 0-10 μM. Alternatively, the cells were also treated with the crude extracts, such as butanol fraction and water insoluble fraction of Astragalus membranaceus at concentrations of 0, 1, 10, and 40 μg/mL. The cells were treated with the indicated compounds or the extracts for 24 h before harvested for analysis of collagen I and III expressed in the whole cell extract or secreted into the culture medium.
(§2) Western blot analysis was carried out on both of cultured medium and cell lysates. The cells were plated on 6-cm dishes at a density of 1×10^6 cells/dish for 24 h prior to treatment with indicated concentrations of astragalus triterpenoids as indicated for another 48 h. The conditioned culture mediums were then centrifuged, 2-fold concentrated and collected for assay of collagens and MMPs secreted into the culture medium. The cells were washed and lysed in 0.2 mL of lysis buffer (1% NP-40, 50 mM Tris-HCl, pH 7.4, 180 mM NaCl, 1 mM EDTA, 1 mM PMSF, 1 mM NaF, 10 mM Na3VO4) for 30 min at 4° C. After centrifuging at 17500 g for 15 min, the supernatants of cell lysate were also collected. Protein concentration of the samples were measured using the bicinchoninic acid (BCA) protein assay kit according to the manufacturer's protocol (Pierce, Rockford, Ill., USA). Equal amount of protein samples of concentrated conditioned medium (100 μg) or cell lysate supernatants (50 μg) were mixed with an appropriate volume of 4×SDS sampling buffer and separated by 8% SDS-PAGE gel. The protein bands separated in the SDS-PAGE gel were blotted onto a polyvinylidene fluoride (PVDF) membrane. The blotted PVDF membrane was washed twice and blocked in freshly prepared Tris-buffered saline (TBS) containing 0.1% Tween-20 and 7% skim milk (TBST) for 2 h at room temperature. The PVDF membrane was then incubated with either antibodies against collagen I and III or the housekeeping protein α-tubulin (Santa Cruz Biotechnology, Santa Cruz, Calif.) for 18 h at 4° C. Horseradish peroxidase-conjugated anti-goat antibody was used as secondary antibody. Signals were visualized by an enhanced chemiluminescence kit (Clonetech, Palo Alto, Calif., USA) followed by exposure to X-ray films.
Results shown represent the quantitated data from western blot analysis. […] The collagen I was also over-expressed in the human HaCaT cells treated with 40 μg/mL of astragaloside extract.

[2] = system: collagen I; experiment: Collagen I expression and secretion in human HDF cells (western blot); type: cell-based; conditions: relative to 0 = 1.00
Protocol: (§3) Primary human dermal fibroblasts cells (HDF) were purchased from Cascade Biologics (Portland, Oreg., USA) and cultured in medium 106 supplemented with 10% fetal bovine serum (FBS), 100 IU/mL penicillin, 100 μg/mL of streptomycin. The cells from passages 4 to 10 were used for this study. Culture medium was replaced every other day. After confluence, the cells were subcultured following trypsinization. For subcultures cells were harvested after brief treatment with 0.1% trypsin/EDTA solution and seeded at a dilution of 1:10. The cells were seeded at 1×10^5 cells in 6-well culture plate for 24 h before treated with astragalosides or crude extracts, such as butanol fraction and water insoluble fraction of Astragalus membranaceus for the indicated time periods. Control cultures were maintained in medium supplemented with vehicle (dimethyl sulfoxide, DMSO, 0.1%). No growth and differentiation effects of DMSO were observed under these culture conditions.
as §1, §2
The collagen expression in the human HDF cells was also determined. […] And Collage I was over-expressed in the cells treated with various doses (1, 10, 40 μg/mL) of the crude extracts, such as butanol fraction and water insoluble fraction of Astragalus membranaceus.

[3] = system: collagen III; experiment: Collagen III expression and secretion in human HDF cells (western blot); type: cell-based; conditions: relative to 0 = 1.00
Protocol: as §3, §1, §2

[4] = system: MMP-1; experiment: Quantitative analysis of MMP-1 transcripts in HDF cells (qRT-PCR); type: cell-based, human; conditions: 0.1 μM, MMP-1 mRNA relative to 0 = 1.00
Protocol: Relative levels of MMP-1 expression in HDF cells were determined by qRT-PCR. Preparation of total RNA and cDNA were carried out as described in previous sections. qRT-PCR was performed using the Applied Biosystem 7300 system and pre-developed Taqman Gene Expression Assays (Applied Biosystems, Foster City, Calif., USA). The reaction was performed as described in previous sections except that primer mix for human MMP-1 (assay ID HS00233958_m1, Applied Biosystems) and GAPDH (assay ID Hs99999905_m1, Applied Biosystems) were used.
Results shown in Tables 6A and 6B represent the quantitated data from zymography analysis of MMP-2 protein in HaCaT cells and qRT-PCR for MMP-1 in HDF cells. The concentrations used were 0, 0.01. 0.1, 1 μM (if not indicated otherwise) for pure compounds; and were 0, 1, 10, 40 μg/mL for crude extract (if not indicated otherwise). The cells were treated with the indicated compounds for 24 h before harvested for analysis of Pro-MMP-2 or activated MMP-2 in whole cell extract. Fifty micrograms of the cell extract samples were used for electrophoresis.

[5] = system: HaCaT cells; experiment: Glucosamine uptake assay in HaCaT cells; type: cell-based, human; conditions: 0.1 μM
Protocol: In glucosamine uptake test, HaCaT cells were seeded into 24-well plate at a density of 3×10^4 cells/well and cultured for 24 h. The cells were then treated in the absence (solvent control) or presence of various concentrations of astragalosides for another 48 h. The treated cells were then washed twice with PBS and incubated in glucose and serum free medium (GSFM). After 2 h, the cells were replaced with fresh GSFM containing 0.2 μCi of [^14C]-Glucosamine (American Radiolabelled Chemicals Inc, ARC, St. Louis, Mo., USA). At the designated time interval, the cells were washed twice with GSFM containing cold glucosamine and then lysed in 200 μL 2% SDS. Cell lysates were centrifuged at 15000 g for 15 min. Intracellular uptaken glucosamine was determined by transferring 10 μL of the cell lysate to filter-bottemed UniFilter plates (Perkim-Elmer) and counted. Protein concentration of the samples was measured using the BCA protein assay kit as described above. Glucosamine accumulated in the cells was calculated and normalized to protein concentration and uptake rate was expressed as counts per minute per microgram of cell protein (cpm/min/μg).

[6] = system: MMP-1; experiment: UV-B-induced MMP-1 expression in human HDF cells (western blot, FIG. 1); type: cell-based; conditions: 50 mJ/cm^2 UV-B, positive control (FIG. 1 lane 3)
Protocol: To characterize the effects of astragalosides on the expression level of MMPs in human cells, HDF or HaCaT cells were first treated with or without various concentrations of astragalosides for 24 h. The cells were washed with phosphate-buffered saline (PBS) and irradiated with 10-100 mJ/cm^2 of UV-B (312 nm) for HDF-1 and HaCaT cells, respectively, using the UV light irradiator (UVItec unlimited, Cambridge, England). The cells were then washed and incubated with serum free medium for 24 h before harvested for analysis. The effect of astragalosides on MMPs levels was analyzed by western blot and the activity of MMPs was analyzed by zymography. All trans retinoic acid (atRA) was used as a positive control to suppress the UV-B-induced MMPs activation and expression.
Human HDF cells were treated with the indicated concentrations of water insoluble fraction of Astragalus membranaceus for 24 h. The cells were then irradiated with 50 mJ/cm^2 of UV-B. After 24 h, the cells were harvested for western blot analysis. […] Thus, the water insoluble fraction of Astragalus membranaceus is a potential agent for the prevention and treatment of skin aging as a result of UV irradiation.

Row | Structure (SMILES) | Collagen I in cell ([1]; 0.01 μM) | Collagen I in cell ([1]; 0.1 μM) | Collagen I in cell ([1]; 1 μM) | Collagen I in cell ([2]; 0.01 μM) | Collagen I in medium ([2]; 0.01 μM) | Collagen I in cell ([2]; 0.1 μM) | Collagen I in medium ([2]; 0.1 μM) | Collagen I in cell ([2]; 1 μM) | Collagen I in medium ([2]; 1 μM) | Collagen III in medium ([3]; 0.01 μM) | Collagen III in medium ([3]; 0.1 μM) | Collagen III in medium ([3]; 1 μM) | MMP-1 Q-PCR [4] | Uptake rate (glucosamine) ([5]; 48 h treatment) [CPM/μg protein] | Percentage (%) of control glucosamine uptake ([5]; relative to control) [%] | UV-mediated induction of MMP-1 expression [6]
1 | CC(C)(O)C1CC[C@](C)(C2[C@@H](O)C[C@@]3(C)C4C[C@H](OC5OC(CO)C(O)C(O)C5O)C5C(C)(C)[C@@H](O)CCC56CC46CC[C@]23C)O1 (stereo partly drawn) [AA, cycloastragenol 6-O-β-D-glucopyranose] | 2.57 | 3.34 | 3.47 | 1.04 | 0.97 | 1.85 | 0.95 | 1.17 | 1.52 | 1.03 | 1.62 | 1.34 | 0.76 | 0.9445 ± 0.0823 | 114.59 | –
2 | CC1=C(/C=C/C(C)=C/C=C/C(C)=C/C(=O)O)C(C)(C)CCC1 [atRA, All trans retinoic acid] | – | – | – | – | – | – | – | – | – | – | – | – | – | – | – | blocked

Source: patent publication US20080057010A1, “METHOD FOR SKIN CARE” (NULIV SCIENCE LTD., priority 2006, published 2008)
